Laboratory results: US20120059011A1, “PHARMACEUTICAL COMPOSITIONS OF COMBINATIONS OF DIPEPTIDYL PEPTIDASE-4 INHIBITORS WITH PIOGLITAZONE” (priority 2009, published 2012)
Structures can show the parent of a compound that is named as a salt.

Test: chemical stability of pioglitazone HCl with lubricants (disproportionation to free base)
Assay type: physicochemical
Conditions: in contact with lubricants, such as magnesium stearate and sodium stearyl fumarate
Method: The pharmaceutical compositions of the present invention are prepared by wet processing methods. In one embodiment the pharmaceutical compositions are prepared by wet granulation methods, such as fluid bed granulation or high-shear granulation. In a class of this embodiment, the pharmaceutical compositions are prepared by fluid-bed granulation. Fluid bed granulation processing has the advantage of affording tablets with higher diametric strength. Further, wet processing methods utilizing an intragranular portion containing Sitagliptin phosphate monohydrate, Pioglitazone HCl, a binding agent, and optionally a disintegrant, enhance the chemical stability of Sitagliptin phosphate monohydrate and pioglitazone HCl. […] The fluid bed granulation method utilizing an intragranular portion containing Pioglitazone HCl, Sitagliptin phosphate monohydrate, a binding agent, and optionally a disintegrant, minimizes the disproportionation of Pioglitazone HCl to the pioglitazone free base.

## CCc1ccc(CCOc2ccc(CC3SC(=O)NC3=O)cc2)nc1 (racemic) [Pioglitazone HCl, [(±)-5-[[4-[2-(5-ethyl-2-pyridinyl)ethoxy]phenyl]-methyl]-2,4-]thiazolidinedione monohydrochloride]
  disproportionation of Pioglitazone HCl to the Pioglitazone free base: react with lubricants
